pIC50: −log10 of the molar value. Counter-ions that a name gives are not always drawn.
Assays:
Format in all cases: cell-based
[1] = tested on: human leukocytes (basophils); test: Inhibition of histamine release from human leukocytes (basophils), Procedure A; settings: Leukocyte, 1 h, rabbit anti-human IgE, 37° C., 60 minutes, (d) No response detected at highest dose indicated, read-out: In Vitro Inhibition of Histamine Release IC50, Procedure A
Procedure: A. Procedure for Determining Inhibition of Histamine Release from Human Leukocytes (Basophils) 1. Separation of Leukocytes: A modification of the method of L. Lichtenstein and A. Osler, J. Exp. Med. 120, 507 (1964) is used. Heparinized human blood (80-100 ml) is mixed with 20 ml of saline (0.2%) containing 0.6 gm of dextrose and 1.2 gm dextran in propylene centrifuge tubes. The mixture is kept at ambient temperature for 60-90 minutes to allow the separation of erythrocytes from the platelet-leukocyte-rich supernate. The supernate is removed and centrifuged for 8 minutes at 110×g in cold. The leukocyte pellet is washed twice with Tris buffer and finally suspended in 150-180 ml Tris-ACM buffer at 1-2×10^6 cells/ml. 2. Reaction Mixture: The reaction is carried out in 12×75 mm plastic tubes at a total volume of […]. The reaction medium includes 0.05 ml rabbit anti-human IgE (the antigen), 0.2 ml of the test compound in water at concentrations ranging from 10-100 μM, and 0.1 ml of the leukocyte suspension. The reaction mixture is incubated in a 37° C. shaking water bath for 60 minutes. Upon completion of the reaction, the tubes are centrifuged and the supernatants collected. The protein is removed from the supernatants by precipitation with 0.2 ml of 8% perchloric acid. 3. Histamine Assay: Histamine release is measured by the automated fluorometric method of W. Siraganian and W. Hook in Chapter 102 of the Manual of Clinical Immunology, 2nd Edition, edited by R. Rose and H. Friedman, published by the American Society for Microbiology, Washington, D.C. 1980. Percent inhibition is calculated as follows: [formula] The concentration which causes a 50 percent inhibition (IC50) of histamine release is interpolated from a plot of percent inhibition versus logarithm of drug concentration.

[2] = tested on: rat peritoneal mast cells; test: Inhibition of histamine release from rat peritoneal mast cells, Procedure B; settings: Mast cell, 1 h, sheep anti-rat IgE or ovalbumin, 37° C., 60 minutes, (d) No response detected at highest dose indicated, read-out: In Vitro Inhibition of Histamine Release IC50, Procedure B
Procedure: B. Procedure for Determining Inhibition of Histamine Release from Rat Peritoneal Mast Cells 1. Harvest of Peritoneal Mast Cells: After the rats are sacrificed with ether, 20 ml of Minimum Essential Medium (MEM) containing 20 units/ml heparin is injected into the peritoneum. The abdomen is massaged for one minute and the lavage fluid collected. The peritoneal cells are centrifuged at 1800 rpm for 8 minutes in cold. After two washes with Tris A buffer, the cells are resuspended in Tris ACM buffer at 2-4×10^6 cells/ml. 2. Reaction Mixture: The reaction is carried out in 12×75 mm plastic tubes at a total volume of 1.25 ml. The reaction mixture includes 0.5 ml (10-1000 μg) sheep anti-rat IgE or ovalbumin, 0.2 ml of the test compound in water at concentrations ranging from 10-1000 μM, […] phosphatidylserine solution (20-60 μg to each tube), and 0.5 ml of cell suspension. The reaction mixture is incubated in a 37° C. shaking water bath for 60 minutes. Upon completion of the reaction, the tubes are centrifuged and the supernatants collected. The protein is removed from the supernatants by precipitation with 0.2 ml of 8% perchloric acid. 3. Histamine Assay: Histamine release is measured by the automated fluorometric method of Siraganian, supra. The concentration which causes a 50% inhibition (IC50) of histamine release is computed as in Part A.

guinea pig basophils = test: Inhibition of histamine release from guinea pig basophils, Procedure C; settings: Cavia porcellus, 1 h, ovalbumin-sensitized, 37° C., 60 minutes, read-out: In Vitro Inhibition of Histamine Release IC50, Procedure C
Procedure: C. Procedure for Determining Inhibition of Histamine Release from Guinea Pig Basophils 1. In Vivo Sensitization: Male Hartley guinea pigs (200-300 gms) are immunized on day 0 with two 0.05 ml intradermal injections of 200 μg ovalbumin. Sensitized basophils are available between days 13-25 post-sensitization. This mode of sensitization favors IgE response. 2. Separation of Leukocytes: The method of Lett-Brown et al., Int. Arch. Allergy, Appl. Immun. 64, 241 (1981) is used. Animals are anesthetized with ether and are bled via cardiac puncture with plastic syringes containing sufficient EDTA to provide a final concentration of 10 mM. One part of 3% gelatin in saline at 37° C. is mixed with two parts of blood in a 16×150 mm tube. The cells are allowed to sediment at a 30° angle for 45 minutes in a 37° C. water bath. The leukocyte-rich plasma is collected and centrifuged at 150×g for 30 minutes at room temperature. The pelleted cells are washed in Hepes-buffered saline (HG) containing 4 mM EDTA and resuspended in Hepes-buffered saline containing Mg^++ and Ca^++ (HGCM) at 4-5×10^6 cells/ml. 3. Reaction Mixture: The reaction is carried out in 12×75 mm plastic tubes and a total volume of 1.2 ml which includes 0.5 ml of antigen, 0.2 ml of drug solution at concentrations ranging from 10-1000 μM and 0.5 ml of prewashed cell suspension. The reaction mixture is incubated in a 37° C. shaking water bath for 60 minutes. Upon completion of the reaction, the tubes are centrifuged and the supernatants collected. The protein is removed from the supernatants by precipitation with 0.2 ml of 8% perchloric acid. 4. Histamine Assay: Histamine release is measured by the automated fluorometric method of Siraganian, supra. The concentration which causes a 50 percent inhibition of Histamine release is computed as in Part A.

| SMILES | pIC50 [1] | pIC50 [2] | pIC50 (guinea pig basophils) |
| --- | --- | --- | --- |
| O=C(CC(=O)N1CCN(Cc2ccc(Cl)cc2)CC1)N1CCN(Cc2ccc(Cl)cc2)CC1 [Example 15, 1,3-Bis[4-(4-chlorobenzyl)-1-piperazinyl]-1,3-dioxopropane dihydrochloride monohydrate] | 4.77 | 5.00 | 4.31 |
| CC(CCN1CCN(Cc2ccc(Cl)cc2)CC1)N1CCN(Cc2ccc(Cl)cc2)CC1 (stereo not shown) [Example 7, 1,3-Bis[4-(4-chlorobenzyl)-1-piperazinyl]-1-methylpropane tetrahydrochloride hemihydrate] | 5.40 | – | – |
| CC(c1ccccc1)N1CCN(CCCN2CCN(C(C)c3ccccc3)CC2)CC1 (stereo not shown) [Example 17, 1,3-Bis[4-(1-phenylethyl)-1-piperazinyl]-propane tetrahydrochloride] | 4.10 | – | – |
| c1ccc(CCN2CCN(CCCN3CCN(CCc4ccccc4)CC3)CC2)cc1 [Example 14, 1,3-Bis(4-phenethyl-1-piperazinyl)propane dihydrochloride dihydrate] | 4.55 | – | – |
| Clc1ccc(C(c2ccccc2)N2CCN(CCCN3CCN(C(c4ccccc4)c4ccc(Cl)cc4)CC3)CC2)cc1 (stereo not shown) [Example 8, 1,3-Bis[4-(4-chlorobenzhydryl)-1-piperazinyl]-propane dihydrochloride dihydrate] | < 3.00 | < 4.00 | – |
| Fc1ccc(CN2CCN(CCCN3CCN(Cc4ccc(F)cc4)CC3)CC2)cc1 [Example 5, 1,3-Bis[4-(4-fluorobenzyl)-1-piperazinyl]propane tetrahydrochloride] | 4.35 | – | 3.12 |
| Clc1ccc(CCN2CCN(CCCN3CCN(CCc4ccc(Cl)cc4)CC3)CC2)cc1 [Example 16, 1,3-Bis[4-(4-chlorophenethyl)-1-piperazinyl]propane] | 5.52 | < 4.00 | 4.92 |
| Clc1ccc(CN2CCN(CCCN3CCN(Cc4ccc(Cl)cc4)CC3)CC2)cc1 [Example 1, 1,3-Bis[4-(4-chlorobenzyl)-1-piperazinyl]propane tetrahydrochloride] | 4.96 | 5.70 | 4.46 |
| FC(F)(F)c1cc(CN2CCN(CCCN3CCN(Cc4ccc(Cl)c(C(F)(F)F)c4)CC3)CC2)ccc1Cl [Example 25, 1,3-Bis[4-(4-chloro-3-trifluoromethylbenzyl)-1-piperazinyl]propane tetrahydrochloride] | 5.22 | – | – |
| Clc1cccc(CN2CCN(CCCN3CCN(Cc4cccc(Cl)c4)CC3)CC2)c1 [Example 23, 1,3-Bis[4-(3-chlorobenzyl)-1-piperazinyl]propane dihydrochloride monohydrate] | 4.85 | – | – |
| Clc1ccc(CCCCN2CCN(CCCN3CCN(CCCCc4ccc(Cl)cc4)CC3)CC2)cc1 [Example 29, 1,3-Bis[4-(4-{4-chlorophenyl}butyl)-1-piperazinyl]propane tetrahydrochloride] | 5.70 | – | – |
| Clc1ccccc1CN1CCN(CCCN2CCN(Cc3ccccc3Cl)CC2)CC1 [Example 21, 1,3-Bis[4-(2-chlorobenzyl)-1-piperazinyl]propane tetrahydrochloride] | 4.85 | – | – |
| Clc1ccc(CN2CCN(CCCN3CCN(Cc4ccc(Cl)c(Cl)c4)CC3)CC2)cc1Cl [Example 20, 1,3-Bis[4-(3,4-dichlorobenzyl)-1-piperazinyl]-propane tetrahydrochloride] | 5.52 | – | – |
| CC(=O)Oc1ccc(CN2CCN(CCCN3CCN(Cc4ccc(OC(C)=O)cc4)CC3)CC2)cc1 [Example 30, 1,3-Bis[4-(4-acetoxybenzyl)-1-piperazinyl]propane] | < 3.00 | – | – |
| Clc1ccc(CN2CCN(CCCCN3CCN(Cc4ccc(Cl)cc4)CC3)CC2)cc1 [Example 3, 1,4-Bis[4-(4-chlorobenzyl)-1-piperazinyl]butane hemihydrate] | 4.62 | – | – |
| O=C(CCN1CCN(Cc2ccc(Cl)cc2)CC1)N1CCN(Cc2ccc(Cl)cc2)CC1 [Example 6, 1,3-Bis[4-(4-chloro-benzyl)-1-piperazinyl]-1-oxo-propane trihydrochloride] | 4.92 | – | – |
| Cc1ccc(CN2CCN(CCCN3CCN(Cc4ccc(C)cc4)CC3)CC2)cc1 [Example 22, 1,3-Bis[4-(4-methylbenzyl)-1-piperazinyl]-propane tetrahydrochloride] | 4.70 | – | – |
| Brc1ccc(CN2CCN(CCCN3CCN(Cc4ccc(Br)cc4)CC3)CC2)cc1 [Example 27, 1,3-Bis[4-(4-bromobenzyl)-1-piperazinyl]propane tetrahydrochloride] | 5.52 | – | – |
| OC(CN1CCN(CCCN2CCN(Cc3ccc(Cl)cc3)CC2)CC1)c1ccccc1 (stereo not shown) [Example 11, 1-[4-(4-Chlorobenzyl)-1-piperazinyl]-3-[4-(2-hydroxy-2-phenylethyl)-1-piperazinyl]propane tetrahydrochloride] | 4.70 | – | – |
| CC1C(C)N(Cc2ccc(Cl)cc2)C(C)C(C)N1CCCN1C(C)C(C)N(Cc2ccc(Cl)cc2)C(C)C1C (stereo not shown) [Example 32, 1,3-bis[4-(4-chlorobenzyl)-2,3,5,6-tetramethyl-1-piperazinyl]propane tetrahydrochloride] | 3.00 | – | – |
| Oc1ccc(CN2CCN(CCCN3CCN(Cc4ccc(O)cc4)CC3)CC2)cc1 [Example 26, 1,3-Bis[4-(4-hydroxybenzyl)-1-piperazinyl]propane] | < 3.00 | – | – |
| OC(CN1CCN(CCCN2CCN(CC(O)c3ccccc3)CC2)CC1)c1ccccc1 (stereo not shown) [Example 13, 1,3-Bis[4-(2-phenyl-2-hydroxyethyl)-1-piperazinyl]propane tetrahydrochloride] | ~3.00 | – | – |
| O=C(CN1CCN(CCCN2CCN(Cc3ccc(Cl)cc3)CC2)CC1)c1ccccc1 [Example 10, 1-[4-(4-Chlorobenzyl)-1-piperazinyl]-3-(4-phenacyl-1-piperazinyl)propane tetrahydrochloride monohydrate] | 5.52 | – | – |
| CCCCOc1ccc(CN2CCN(CCCN3CCN(Cc4ccc(OCCCC)cc4)CC3)CC2)cc1 [Example 31, 1,3-Bis[4-(4-butoxybenzyl)-1-piperazinyl]propane tetrahydrochloride] | 5.40 | – | – |
| c1ccc(CN2CCN(CCCN3CCN(Cc4ccccc4)CC3)CC2)cc1 [Example 4, 1,3-Bis(4-benzyl-1-piperazinyl)propane tetrahydrochloride] | 4.28 | – | – |
| O=C(CN1CCN(CCCN2CCN(CC(=O)c3ccccc3)CC2)CC1)c1ccccc1 [Example 12, 1,3-Bis(4-phenacyl-1-piperazinyl)propane tetrahydrochloride monohydrate] | 3.10 | – | – |

Source: patent US4725597A, “Bis(piperazinyl or homopiperazinyl)alkanes” (Boehringer Ingelheim Ltd., priority 1984, dated 1988)
